This is an account of results in publication PMC9995496, “A screen for MeCP2-TBL1 interaction inhibitors using a luminescence-based assay” (Scientific Reports, 2023).

Structures are written as SMILES. Structures can show the parent of a compound that is named as a salt. Where two headings read alike, the source gives them in different places.

This assay concerns PRKACA-PRKAR2A interaction (SmBiT-PRKACA / LgBiT-PRKAR2A), protein kinase A. Also noted: NanoLuc complementation counter-screen in cell extract, PRKACA with PRKAR2A, loss of luminescence, detects NanoLuc interference. The conditions noted are these: 0.5 h, 20 µM, inhibitor.
Setting [1] is: counter-screen for NanoLuc interference.

Take `CN1CCN(c2ccc3nc(-c4c(N)c5c(F)cccc5[nH]c4=O)[nH]c3c2)CC1` [UM0142698:01, Dovitinib (TKI258) Lactate]: where the note is “counter-screen for NanoLuc interference, Inh (PKA)”, the “Inh (PKA)” value amounted to 21.22%.

Consider `COc1cc2ncnc(Nc3cccc(Cl)c3F)c2cc1OC(=O)N1CCN(C)C[C@H]1C` [UM0142700:01, AZD3759], for which, under setting [1], the “Inh (PKA)” value came to 7.884%.

As to `CNCC(O)c1ccc(O)cc1` (stereo not drawn) [UM0142702:01, Synephrine], under setting [1], the “Inh (PKA)” value is 1.654%.

Consider `O=C(Cc1ccccc1)Nc1nnc(CCSCCc2nnc(NC(=O)Cc3ccccc3)s2)s1` [UM0142712:01, BPTES], for which the “Inh (PKA)” value under setting [1] is listed as 8.754%.

As to `CC(=O)c1cc2c(o1)C(=O)c1ccccc1C2=O` [UM0142718:01, Napabucasin], under setting [1], the “Inh (PKA)” value was found to be 2.166%.

With `Cc1ccc(Nc2ncc3c(n2)N(C)C(=O)N(c2cc(NC(=O)c4cccc(C(F)(F)F)c4)ccc2C)C3)cn1` [UM0142721:01, GNF-7], under setting [1], the “Inh (PKA)” value stood at 15.96%.

Consider `CC(C)Oc1ccc(-c2nc(-c3cccc4c3CC[C@@H]4NCCO)no2)cc1C#N` [UM0142722:01, Ozanimod (RPC1063)], for which the “Inh (PKA)” value under setting [1] is recorded as 8.033%.

With `O=C(NCC(=O)N1CCCC1)Nc1ccc2cnccc2c1` [UM0142726:01, SGC707], the “Inh (PKA)” value under setting [1] worked out at 9.797%.

With `O=C(Nc1cc(Cl)cc2c1[nH]c1cnccc12)c1cccnc1` [UM0142732:01, PS-1145], the “Inh (PKA)” value under setting [1] is given as 3.261%.

For `COC(=O)c1ccc([C@@H]2c3[nH]c4ccccc4c3C[C@@H](C(=O)OC)N2C(=O)CCl)cc1` [UM0142735:01, RSL3], the “Inh (PKA)” value under setting [1] worked out at 22.95%.

As for `Cc1c(Cl)cccc1S(=O)(=O)Nc1nc(CC(=O)N2CCN(C)CC2)cs1` [UM0142740:01, BVT 2733], the “Inh (PKA)” value under setting [1] was 1.989%.

With `CCOC(=O)COc1ccc(/C=C2\SC(=S)NC2=O)cc1OC` [UM0142743:01, IMR-1], the “Inh (PKA)” value under setting [1] stood at 35.49%.

Consider `COc1ccc(/C=C(\C#N)c2cccnc2)cc1OC` [UM0142745:01, RG 13022], for which the “Inh (PKA)” value under setting [1] worked out at 13.99%.

`Cc1cn(CCN2CCN(c3ccccc3-c3cc(C#N)cc(C(=O)NCCCN4CCCC4)c3)CC2)c2ccccc12` [UM0142746:01, LLY507]: the “Inh (PKA)” value under setting [1] is 10.14%.

`Nc1nccc2c1ncn2[C@@H]1O[C@H](CO)[C@@H](O)[C@H]1O` [UM0142748:01, 3-Deazaadenosine]: the “Inh (PKA)” value under setting [1] is -15.82%.

On to `Nc1ncc(-c2ccnc(Nc3ccncc3)n2)c(CC2CC2)n1` [UM0142752:01, PIK-III], for which the “Inh (PKA)” value under setting [1] stood at 17.17%.

Consider `COc1cc(OCc2cccc(-c3ccccc3)c2C)cc(OC)c1CN1CCCC[C@H]1C(=O)O` [UM0142755:01, PD-1/PD-L1 inhibitor 1], for which, under setting [1], the “Inh (PKA)” value worked out at 7.667%.

Regarding `CN1CCc2cc(Nc3ncc(C4CC4)c(NCCCNC(=O)C4CCC4)n3)ccc2C1` [UM0142756:01, MRT68921], under setting [1], the “Inh (PKA)” value worked out at 22%.

Turning to `O=C(Nc1cnn2ccc(N3CCC[C@@H]3c3cc(F)ccc3F)nc12)N1CC[C@H](O)C1` [UM0142757:01, LOXO-101], the “Inh (PKA)” value under setting [1] is recorded as 0.6062%.

Consider `CC(C)(C)C(=O)Oc1ccc(S(=O)(=O)Nc2ccccc2C(=O)NCC(=O)O)cc1` [UM0142761:01, Sivelestat (ONO-5046)], for which the “Inh (PKA)” value under setting [1] is -0.1491%.

As for `Cc1ccc2nc(CN(CCN(Cc3nc4ccc(C)cc4[nH]3)Cc3nc4ccc(C)cc4[nH]3)Cc3nc4ccc(C)cc4[nH]3)[nH]c2c1` [UM0142762:01, NSC348884], under setting [1], the “Inh (PKA)” value stood at 3.32%.

Consider `COc1cc(-c2cn(C)c(=O)c3cnccc23)cc(OC)c1CN(C)C` [UM0142765:01, BI-7273], for which, under setting [1], the “Inh (PKA)” value was found to be 0.4975%.

Take `CCCOc1ccc(CCc2nc3cc(-c4c(C)noc4C)ccc3n2CCN2CCOCC2)cc1` [UM0142766:01, PF-CBP1]: the “Inh (PKA)” value under setting [1] turned out to be 9.037%.

Regarding `N=C(N)NN` [UM0142771:01, Aminoguanidine hydrochloride], the “Inh (PKA)” value under setting [1] is recorded as 0.824%.

As for `CC(C)SC(=N)N` [UM0142772:01, S-Isopropylisothiourea hydrobromide], the “Inh (PKA)” value under setting [1] turned out to be 0.4324%.

As for `CS(=O)(=O)Nc1ccc([N+](=O)[O-])cc1OC1CCCCC1` [UM0142773:01, NS 398], under setting [1], the “Inh (PKA)” value came to 50.11%.

Regarding `CCCOc1ccccc1-c1nc2[nH]nnc2c(=O)[nH]1` [UM0142774:01, Zaprinast], the “Inh (PKA)” value under setting [1] was found to be 3.478%.

With `CC1=Nc2ccc(Cl)cc2S(=O)(=O)N1` [UM0142775:01, Diazoxide], the “Inh (PKA)” value under setting [1] is on record as -0.314%.

With `COc1ccc(CCCOC(Cn2ccnc2)c2ccc(OC)cc2)cc1` (stereo not drawn) [UM0142776:01, SKF 96365 hydrochloride], the “Inh (PKA)” value under setting [1] was determined as 35.58%.

For `CC(N)=NCc1cccc(CN)c1` [UM0142778:01, 1400W dihydrochloride], the “Inh (PKA)” value under setting [1] is -1.118%.

Regarding `CN(C)CCCC1(c2ccc(F)cc2)OCc2cc(C#N)ccc21` (stereo not drawn) [UM0142779:01, Citalopram hydrobromide], the “Inh (PKA)” value under setting [1] is on record as 0.9875%.

Regarding `Nc1ncnc2c1ncn2C1CCCO1` (stereo not drawn) [UM0142780:01, SQ 22536], the “Inh (PKA)” value under setting [1] is reported as -2.134%.

With `O=C1OC2(c3ccccc31)c1ccc(O)c(O)c1Oc1c2ccc(O)c1O` [UM0142786:01, Gallein], under setting [1], the “Inh (PKA)” value worked out at 24.58%.

As to `C[C@H](NC(=O)c1sccc1OCc1ccc(Cl)cc1)c1ccccc1` [UM0142788:01, AS 1949490], the “Inh (PKA)” value under setting [1] is listed as 58.85%.

Regarding `N[C@@H]1C[C@H]1c1ccccc1` [UM0142789:01, Tranylcypromine hydrochloride], under setting [1], the “Inh (PKA)” value is listed as -0.9566%.

With `COc1ccc(C[C@H](N)C(=O)N[C@H]2[C@@H](O)[C@H](n3cnc4c(N(C)C)ncnc43)O[C@@H]2CO)cc1` [UM0142790:01, Puromycin dihydrochloride], the “Inh (PKA)” value under setting [1] was -1.723%.

As for `C=CCNc1ncnc2ccc(Br)cc12` [UM0142792:01, SMER 28], under setting [1], the “Inh (PKA)” value is given as 2.149%.

As for `CC(C)(C)c1ccc(S(=O)(=O)NCc2ccc(C(=O)Nc3cccnc3)cc2)cc1` [UM0142793:01, STF 31], the “Inh (PKA)” value under setting [1] worked out at 3.916%.

As for `O=C(O)[C@@]1(CCCCCCOc2ccc(Cl)cc2)CO1` [UM0142794:01, (R)-(+)-Etomoxir sodium salt], the “Inh (PKA)” value under setting [1] was found to be 1.565%.

Turning to `CC(C(=O)O)C(=O)O` [UM0142795:01, Methylmalonate], the “Inh (PKA)” value is listed as -2.942.

Turning to `COc1nccnc1NS(=O)(=O)c1ccc(NC(=O)/C=C/c2ccc([N+](=O)[O-])s2)cc1` [UM0142796:01, Necrosulfonamide], the “Inh (PKA)” value under setting [1] is on record as 27.6%.

Turning to `COc1cc2c(NC3CCN(C(C)C)CC3)nc(N3CCC(F)(F)CC3)nc2cc1OCCCN1CCCC1` [UM0142799:01, UNC 0642], the “Inh (PKA)” value under setting [1] was determined as 0.7014%.

Regarding `COc1ccc(N(C)c2nc(C)nc3ccccc23)cc1` [UM0142800:01, MPC 6827 hydrochloride], under setting [1], the “Inh (PKA)” value stood at 22.54%.

For `CCc1c(-c2ccccc2)c(-c2ccccc2)nn1-c1ccccc1-c1cccc(OCC(=O)O)c1` [UM0142801:01, BMS 309403], under setting [1], the “Inh (PKA)” value was 85.65%.

In the case of `Nc1nccc(Oc2ccc3c(C(=O)Nc4cccc(C(F)(F)F)c4)cccc3c2)n1` [UM0142802:01, BAW2881 (NVP-BAW2881)], under setting [1], the “Inh (PKA)” value is recorded as 7.673%.

In the case of `C[C@@H]1CC(=O)Nc2cccc(-c3ccc4c(c3)c(-c3cnn(C)c3)nn4C)c2N1` [UM0142803:01, CPI-637], under setting [1], the “Inh (PKA)” value is 3.742%.

For the compound `Cc1ccc(C(=O)OCc2ccc([C@@H](CN)C(=O)Nc3ccc4cnccc4c3)cc2)c(C)c1` [UM0142804:01, Netarsudil (AR-13324)], under setting [1], the “Inh (PKA)” value turned out to be 32.51%.

For the compound `Oc1cc(CNC(=S)/C=C/c2cc(O)c(O)c(Br)c2)cc(O)c1O` [UM0142805:01, NT157], under setting [1], the “Inh (PKA)” value is reported as 30.97%.

For the compound `COc1ccc(Cn2c3ncnc4c(ncn4Cc4ccc(OC)cc4)c-3nc2=O)cc1` [UM0142806:01, RK-33], the “Inh (PKA)” value under setting [1] is recorded as 7.723%.

As to `CN(C)CCCOc1ccc(-c2ccc3ncc4c(c3c2)n(C2CCOCC2)c(=O)n4C)cn1` [UM0142808:01, AZD0156], under setting [1], the “Inh (PKA)” value is -0.519%.

`O=C(O)C(O)C(O)C(=O)O` (stereo not drawn) [UM0142810:01, Sodium tartrate]: under setting [1], the “Inh (PKA)” value is on record as 0.7692%.

For the compound `c1c[nH]cn1` [UM0142811:01, Imidazole], under setting [1], the “Inh (PKA)” value was 0.004759%.

On to `Nc1ccc(C(=O)O)cc1` [UM0142813:01, 4-Aminobenzoic acid], for which the “Inh (PKA)” value under setting [1] is on record as -1.147%.

`O[C@H]1[C@H](O)[C@@H](O)[C@H](O)[C@@H](O)[C@H]1O` [UM0142814:01, myo-Inositol]: the “Inh (PKA)” value under setting [1] is -0.9273%.

Turning to `CCCCCCCCCCCCCC(=S)NCCCC[C@H](NC(=O)OCc1ccccc1)C(=O)Nc1ccccc1` [UM0142815:01, Thiomyristoyl], under setting [1], the “Inh (PKA)” value is listed as -1.991%.

As to `CC(C)(O)c1coc(S(=O)(=O)NC(=O)Nc2c3c(cc4c2CCC4)CCC3)c1` [UM0142816:01, MCC950 sodium], the “Inh (PKA)” value under setting [1] was -1.906%.

For the compound `Cc1c(CN2CCN(S(C)(=O)=O)CC2)sc2c(N3CCOCC3)nc(-c3cnc(N)nc3)nc12` [UM0142817:01, GNE-477], the “Inh (PKA)” value under setting [1] was 0.346%.

For the compound `COc1ccc(N(C(=O)Oc2c(C)cccc2C)c2ccnc(Nc3ccc(N4CCN(C)CC4)cc3)n2)c(OC)c1` [UM0142819:01, WH-4-023], the “Inh (PKA)” value was determined as 37.82%.

Regarding `CCCCNc1ncc2c(-c3ccc(CN4CCN(C)CC4)cc3)cn([C@H]3CC[C@H](O)CC3)c2n1` [UM0142820:01, UNC2025], the “Inh (PKA)” value under setting [1] was 23.55%.

With `CC(C)OC(=O)[C@H](C)N[P@](=O)(CO[C@H](C)Cn1cnc2c(N)ncnc21)Oc1ccccc1` [UM0142821:01, GS-7340], the “Inh (PKA)” value was found to be 0.4788.

Turning to `CCS(=O)(=O)N1CCN(c2ccc(Nc3ncc(C(N)=O)c(NC4CC4)n3)cc2)CC1` [UM0142822:01, Cerdulatinib (PRT062070)], the “Inh (PKA)” value under setting [1] stood at 16.29%.

With `C=C(Cc1ccccc1Cl)C(=O)OCC` [UM0142823:01, INF39], under setting [1], the “Inh (PKA)” value amounted to 8.84%.

On to `CC1=C(CSC(=S)N2CCCCC2)C(=O)c2ccccc2C1=O` [UM0142824:01, PKM2 inhibitor(compound 3k)], for which the “Inh (PKA)” value under setting [1] was 18.26%.
